Measured values reported in US6806377B1, “Preparation of metallocenes carrying a cyclopentadiene comprising a basic donor group” (The University of Leeds, priority 1999, dated 2004).

Key:
[1] = stability towards water, air, moisture and heat (qualitative statements); format: physicochemical; conditions: for air / moisture stability: air and moisture
[2] = solubility in solvents (qualitative statements); format: physicochemical
[3] = background statement; cited from earlier work

(Cp(CH2)2N(CH2)5)2TiMe2 [Compound 3]
thermal stability [1]: thermally stable | air / moisture stability [1]: highly air sensitive

(CpCH2CH2N(CH2)2(CH2)2)2TiCl2.2HCl [Compound 2]
solubility in a polar solvent ([2]; polar solvent such as methanol, water and acetonitrile): soluble | water solubility ([2]; water): water soluble | air / moisture stability [1]: air stable | storage stability ([1]; storage of the protected titanocene): can be stored indefinitely

(CpCH2CH2N(CH2)2)2)TiCl2 [Compound 1]
solubility in aprotic, polar and non-polar solvents ([2]; solvents such as ether and toluene): soluble | air / moisture stability [1]: highly air and moisture sensitive

titanocene dichloride
stability in aqueous solution [3]: unstable
